Results: patent US6572603B1, “Vitamin d solution holder and containers for transfusions” (Otsuka Pharmaceutical Factory, Inc., priority 1998, dated 2003)
Counter-ions that a name gives are not always drawn.

Tests used:
[1] = Vitamin contents in transfusion fluid containers of Examples 4 and 5 after autoclaving and 40° C. four-month storage, bioassay (vitamin B12, biotin) or HPLC (other vitamins); format: physicochemical
Protocol: In a holder produced from a three-layered film (the thickness of each layer: 10 μm) in which the outer and the inner layers are made of polyethylene and the intermediate layer is made of ethylene.tetracyclododecene copolymer (trade name: Apel, product of Mitsui Chemicals, Inc.), solution (C) (4 ml) was charged and the inlet was melt-sealed. In a two-compartment container, the prepared holder was attached to one of the compartments. […] The above-described transfusion fluid containers in Examples 4 and 5 were allowed to stand at 40° C. for four months after autoclaving. Thereafter, the contents of vitamins in the containers were measured through a bioassay according to Pharmacopoeia of Japan (for vitamin B12 and biotin) or through HPLC (for other vitamins). The content of each vitamin is represented by a percentage (%) of the initially incorporated amount.

[2] = Vitamin content of solution (C) in polyolefin holders after autoclaving and storage at 40° C. for four months, measured through HPLC (Example 3); format: physicochemical
Protocol: Solution (C) (4 ml) prepared in Example 1 was charged into each of holders made of the materials shown in Table 3, to thereby obtain a holder which contains a solution of vitamin D3. Each of these holders containing a solution of vitamin D3 was subjected to autoclaving and wrapped in a nylon multi-layered-film bag together with a deoxidizing agent (trade name: Ageless, product of Mitsubishi Gas Chem. Co., Inc.). The thus-wrapped holders were allowed to stand at 40° C. for four months. Thereafter, the content of each vitamin in each holder was measured through HPLC. The content of each vitamin is represented by a percentage (%) of the initially incorporated amount.

[3] = Example 4 transfusion fluid container, 40° C., 4 months
[4] = Example 4 transfusion fluid container, immediately after sterilization
[5] = Example 5 transfusion fluid container, 40° C., 4 months
[6] = Example 5 transfusion fluid container, immediately after sterilization
[7] = holder No. 1, polyethylene, 30 μm, resin 7.4 cm^3 per μmol vitamin D, 40° C., 4 months
[8] = holder No. 1, polyethylene, 30 μm, resin 7.4 cm^3 per μmol vitamin D, after sterilization
[9] = holder No. 2, polyethylene, 100 μm, resin 18.5 cm^3 per μmol vitamin D, 40° C., 4 months
[10] = holder No. 2, polyethylene, 100 μm, resin 18.5 cm^3 per μmol vitamin D, after sterilization
[11] = holder No. 3, polypropylene, 30 μm, resin 7.4 cm^3 per μmol vitamin D, 40° C., 4 months
[12] = holder No. 3, polypropylene, 30 μm, resin 7.4 cm^3 per μmol vitamin D, after sterilization
[13] = holder No. 4, polyethylene, 250 μm, resin 123.2 cm^3 per μmol vitamin D, 40° C., 4 months
[14] = holder No. 4, polyethylene, 250 μm, resin 123.2 cm^3 per μmol vitamin D, after sterilization
[15] = holder No. 5, polypropylene, 250 μm, resin 123.2 cm^3 per μmol vitamin D, 40° C., 4 months
[16] = holder No. 5, polypropylene, 250 μm, resin 123.2 cm^3 per μmol vitamin D, after sterilization

| Compound | Vitamin content, percentage (%) of the initially incorporated amount [1, 3] | Vitamin content, percentage (%) of the initially incorporated amount [1, 4] | Vitamin content, percentage (%) of the initially incorporated amount [1, 5] | Vitamin content, percentage (%) of the initially incorporated amount [1, 6] | Vitamin content (%) of initially incorporated amount [2, 7] | Vitamin content (%) of initially incorporated amount [2, 8] | Vitamin content (%) of initially incorporated amount [2, 9] | Vitamin content (%) of initially incorporated amount [2, 10] | Vitamin content (%) of initially incorporated amount [2, 11] | Vitamin content (%) of initially incorporated amount [2, 12] | Vitamin content (%) of initially incorporated amount [2, 13] | Vitamin content (%) of initially incorporated amount [2, 14] | Vitamin content (%) of initially incorporated amount [2, 15] | Vitamin content (%) of initially incorporated amount [2, 16] |
| --- | --- | --- | --- | --- | --- | --- | --- | --- | --- | --- | --- | --- | --- | --- |
| CC(=O)Oc1c(C)c(C)c2c(c1C)CCC(C)(CCC[C@H](C)CCC[C@H](C)CCCC(C)C)O2 (some centres unmarked) [Vitamin E, tocopherol acetate] | 95.1% | 94.9% | 94.8% | 95.3% | 98.3% | 98.7% | 99.7% | 99.4% | 97.3% | 97.6% | 95.6% | 98.2% | 95.3% | 97.6% |
| NC(=O)c1cccnc1 [Nicotinamide, nicotinamide] | 97.8% | 98.6% | 98.5% | 98.2% | – | – | – | – | – | – | – | – | – | – |
| CC(C)(CO)[C@@H](O)C(=O)NCCCO [Panthenol, panthenol] | 96.9% | 97.4% | 97.6% | 98.5% | – | – | – | – | – | – | – | – | – | – |
| O=C1O[C@H]([C@@H](O)CO)C(O)=C1O [Vitamin C, ascorbic acid] | 98.3% | 98.7% | 97.5% | 97.8% | 94.3% | 96.2% | 95.4% | 97.1% | 94.2% | 97.3% | 94.8% | 97.5% | 93.1% | 96.8% |
| cyanocobalamin [Cyanocobalamin (B12)] | 89.2% | 91.3% | 90.5% | 96.5% | – | – | – | – | – | – | – | – | – | – |
| O=C(O)CCCC[C@@H]1SC[C@@H]2NC(=O)N[C@@H]21 [Biotin, biotin] | 99.8% | 100.4% | 100.3% | 98.7% | – | – | – | – | – | – | – | – | – | – |
| Cc1cc2nc3c(=O)[nH]c(=O)nc-3n(C[C@H](O)[C@H](O)[C@H](O)COP(=O)(O)O)c2cc1C [Vitamin B2, sodium riboflavin phosphate] | 83.2% | 86.5% | 84.3% | 85.9% | 90.7% | 94.8% | 91.2% | 96.3% | 91.0% | 95.4% | 90.9% | 94.6% | 91.2% | 95.3% |
| CC1=C(C/C=C(\C)CCC[C@H](C)CCC[C@H](C)CCCC(C)C)C(=O)c2ccccc2C1=O [Vitamin K, phytonadione] | 95.3% | 96.2% | 95.4% | 95.8% | 91.3% | 95.4% | 90.8% | 94.7% | 91.3% | 96.1% | 89.1% | 94.3% | 88.7% | 93.9% |
| Cc1ncc(C[n+]2csc(CCO)c2C)c(N)n1 [Thiamin hydrochloride (B1), thiamin hydrochloride] | 87.4% | 93.8% | 86.6% | 93.5% | – | – | – | – | – | – | – | – | – | – |
| Nc1nc2ncc(CNc3ccc(C(=O)N[C@@H](CCC(=O)O)C(=O)O)cc3)nc2c(=O)[nH]1 [Folic acid, folic acid] | 97.5% | 97.8% | 99.1% | 98.3% | – | – | – | – | – | – | – | – | – | – |
| Cc1ncc(CO)c(CO)c1O.Cl [Pyridoxine hydrochloride (B6), pyridoxine hydrochloride] | 100.1% | 100.5% | 99.8% | 99.7% | – | – | – | – | – | – | – | – | – | – |
| CCCCCCCCCCCCCCCC(=O)OC/C=C(C)/C=C/C=C(C)/C=C/C1=C(C)CCCC1(C)C [Vitamin A, retinol palmitate] | 84.5% | 87.2% | 83.9% | 86.5% | 80.7% | 91.1% | 81.3% | 90.9% | 81.2% | 90.7% | 78.3% | 89.1% | 77.8% | 88.9% |
